The values that follow come from patent US8846903B2, “Acyl-urea derivatives and uses thereof” (Yissum Research Development Company of the Hebrew …, priority 2007, dated 2014).

By ED50 is commonly meant the midpoint of the dose-response relation. As usually defined, the melting point is the temperature, or range, at which the solid turns liquid.

Series [1] relates to rats. Description: Maximal electroshock seizure test (MES) in rats. It is filed as in vivo. Conditions: for ED50: Rattus norvegicus; for Fraction of rats which responded to the treatment: MES. The source says: Briefly, Maximal Electroshock Seizure (MES) assay measures drug capacity to prevent seizure spread and is thus considered to model generalized tonic-clonic seizures. […] The current was delivered to the subjects by means of corneal electrodes to produce tonic hind limb extension. Animals not displaying tonic hind limb extension were considered affected positively by the tested compound.
(Protection in the maximal electroshock model is a classic sign of anticonvulsant action.)

The subject of series [2] is rats. The series can be described thus: Subcutaneous metrazol seizure threshold test (scMet) in rats. The class given is in vivo. Conditions: for ED50: Rattus norvegicus, po; for ED50 / ED50 scMet in Rats: rats, scMet model, oral administration (stated for Compound 1); for Fraction of rats which responded to the treatment: scMet. On the procedure: Subcutaneous Metrazole Seizure Threshold Test (scMet) assay measures the ability of an agent to elevate seizure threshold and is considered to model generalized absence seizures. The assay was performed by subcutaneous injection of 85 mg/kg of the convulsant agent metrazole that induces clonic seizures in at least 97% of all animal models (rats and mice).

Series [3] has as its system mice. Description: Psychomotor seizure (6 Hz, 32 mA) assay in mice. Conditions: Mus musculus, ip, intraperitoneal. The class given is in vivo. How it is done:
In a third model, the compounds were tested for their ability to block 6 Hz (32 mA) seizures following intraperitoneal administration thereof to male mice. This test is aimed at identifying new drug candidates for the treatment of therapy-resistant partial seizures.
(§1) Briefly, psychomotor seizure (6-Hz) assay measures the resistance of a subject to induced psychomotor seizures. The assay was conducted in mice which were pretreated with the test compound. At varying times after treatment, individual subjects were challenged with sufficient current of 32 mA at 6 Hz for 3 seconds, or 44 mA at 6 Hz for 3 seconds, delivered through corneal electrodes to elicit a psychomotor seizure. Animals which were not affected by the current were considered affected positively by the tested compound, thus compounds which were found active in this test are considered promising novel drug candidates for the treatment of therapy-resistant seizures.

Series [4] relates to mice. The series can be described thus: Psychomotor seizure (6 Hz, 44 mA) assay in mice. It is filed as in vivo. Conditions: Mus musculus. On the procedure: as §1
Series [5] deals with rats. Description: Hippocampal kindling screen in rats. The class given is in vivo. Conditions: for ED50: Rattus norvegicus, ip. How it is done: In a fifth model, the hippocampal kindling assay was used to identify new drug candidates effective for the treatment of difficult-to-control seizure types and complex partial seizures, as well as compounds that may be effective as mood stabilizer for treating bipolar disorder, and was conducted according to the protocol described therein.
Briefly, this test was conducted by using a bipolar stimulating electrode which was implanted in the hippocampus of rats, and the rats were kindled according to a described method. One week after implantation of the electrodes, the rats were stimulated with supra-threshold trains of 200 μA and 50 Hz for 10 seconds every 30 minutes for 6 hours on alternate days until the animals were fully kindled. […] The behavioral seizures were scored according to the following criteria (“seizure score”): stage 1—mouth and facial clonus; stage 2—stage 1 plus head nodding; stage 3—stage 2 plus forelimb clonus; stage 4—stage 3 plus rearing; and stage 5—stage 4 plus repeated rearing and falling.
For these studies, each of the compounds was evaluated for its ability to block the kindled motor seizure (seizure scores 4 and 5) and limbic behavioral seizures (seizure score between 1 and 3). Additionally the new drug candidate was evaluated for their ability to reduce after discharge duration. The term “after-discharge-duration” is the duration (measured in seconds) of the stages defined above, which are elicited by the electrical currents delivered to the rats.
At least one week after the fully kindled state was reached, a dose of the test compound was administered intraperitoneally and its effect on behavioral seizure score and after-discharge-duration following 200 μA stimulation was assessed at various time intervals before drug administration and after drug administration. Animals not displaying stage 4 or 5 were considered affected positively from seizure generalization.

The next series in a line: in vivo. Conditions: rat, po.
The subject of series [6] is rats. Description: Neurotoxicity, gait and stance test in rats (TD50). Conditions: oral administration, median neurological toxic dose.
Procedure: (§2) The neurotoxicity of the compounds of the present embodiments was tested using rats which were treated by oral administration, and evaluated according to the “gait and stance” test, which assesses minimal neurotoxicity. […] The median neurological toxic dose (TD50) was used for quantization of neurotoxicity.
A further series relates to Sprague Dawley rats. The series can be described thus: Acute toxicity (acute motor impairment) after i.p. administration to rats. The class given is in vivo. On the procedure:
Acute toxicity was determined by recording acute motor impairment after three doses of 30, 100 and 300 mg/kg of the tested compounds. The compounds were administered by the intraperitoneal (i.p.) route to three groups of 4 Sprague Dawley rats. […]

In series [7] the test system is mice. Conditions: reported by Spielman et al. [19]; cited from earlier work.
Series [8] deals with mice. Conditions: reported by Spielman et al. [19]; cited from earlier work. This is another data set of the same source.
In series [9] the test system is mice. Conditions: tested by Spielman and co-workers; cited from earlier work.
The subject of series [10] is mice. Description: Bicuculline (BIC) clonic seizure assay in mice. It is filed as in vivo. Conditions: Mus musculus, sc, BIC 2.7 mg/kg s.c., read-out: Bicucullin ED50.
The test system of series [11] is mice. The series can be described thus: animal or person. Conditions: Mus musculus, sc, read-out: Picrotoxin ED50. The class given is in vivo.
For series [12], the system named is rats. Conditions: results disclosed in the art; cited from earlier work.
Series [13] deals with rats. Conditions: results disclosed in the art; cited from earlier work. This is another data set of the same source.
The test system of series [14] is rats. Conditions: oral administration, literature values; cited from earlier work.
Series [15] concerns mice. Conditions: from [31]; cited from earlier work.
In series [16] the test system is mice. Conditions: from [31]; cited from earlier work. The source holds these as a separate data set.

Values joined by “and” are separate entries in the source; they are usually repeats but may differ in a detail not shown here. Identical values can stand only once.

Procedure for in vivo: as §2

As for `CCCC(C(=O)NC(N)=O)C(C)C` (racemic) [Compound 1, 1-(2-isopropylpentanoyl)urea], the ED50 in the series with rats [1] (rats, MES model) was 16 mg/kg; in the series on rats [2], 45 mg/kg; in the series with mice [3], 42.2 mg/kg; with mice [4], 71 mg/kg; in the series on rats [5] (rats, intraperitoneal) it was above 94 mg/kg. Besides, the “ED50 scMet in Rats” value in the series on rats [2] is recorded as 45.4 mg/kg. The compound also displayed a TD50 in “in vivo” of 95 mg/kg. Besides, the “TD50 in Rats” value with rats [6] stood at 94.5 mg/kg.
As for `CC[C@@H](C)[C@@H](CC)C(=O)NC(N)=O` (racemic) [Compound 4, 1-(2-ethyl-3-methyl-pentanoyl)-urea], the median effective dose (ED50) with rats [1] (rats, MES model) came out at 24 mg/kg; with rats [2] it was 14 mg/kg; in the series with mice [3] it was 21 mg/kg; in the series on mice [4] it was 48 mg/kg. Besides, the “toxicity profile (animals toxic/tested)” value in the series on Sprague Dawley rats (100 mg/kg i.p., 0.25 hours) is on record as 0/2; in the series with Sprague Dawley rats (100 mg/kg i.p., 0.5 hours), 1/2; with Sprague Dawley rats (100 mg/kg i.p., 1 hour) it was 1/2; with Sprague Dawley rats (100 mg/kg i.p., 2 hours), 0/2; with Sprague Dawley rats (100 mg/kg i.p., 4 hours), 0/2; in the series with Sprague Dawley rats (300 mg/kg i.p., 0.25 hours), 2/2. The “toxicity profile (animals toxic/tested)” value in the series with Sprague Dawley rats (300 mg/kg i.p., 0.5 hours) is reported as 2/2; with Sprague Dawley rats (300 mg/kg i.p., 1 hour) it was 2/2; in the series with Sprague Dawley rats (300 mg/kg i.p., 2 hours), 2/2; in the series with Sprague Dawley rats (300 mg/kg i.p., 4 hours), 2/2. In addition, the “activity in the MES assay” value with mice [7] is “inactive”. Further, the “activity in the scMet assay” value in the series with mice [8] is recorded as “only active at toxic doses”. For the same compound, the anti-convulsant activity result in the series with mice [9] is “lack beneficial activity”. The compound also came in with a TD50 in the series “in vivo” of 97 mg/kg.
As to `CCC[C@H](C(=O)NC(N)=O)C(C)C` (stereo in doubt) [Compound 1R, R-1-(2-isopropylpentanoyl)urea], the ED50 in the series on mice [3] was found to be 43 mg/kg; in the series on mice [4], 56 mg/kg.
Take `CCC[C@@H](C(=O)NC(N)=O)C(C)C` [Compound 1S, S-1-(2-isopropylpentanoyl)urea]: the figures for the ED50 in the series with mice [3] and in the series on mice [4] were 46 mg/kg and 75 mg/kg, respectively.
`CC(C)C(C(=O)NC(N)=O)C(C)C` [Compound 2, 1-(2-isopropyl-3-methylbutanoyl)urea]: the melting point lay in the range of 199 to 200 °C. Further, in the series on rats [1] (dose 15 mg/kg), the “Fraction of rats which responded to the treatment” value (“Fraction of rats which responded” for short) is 1/8. The “Fraction of rats which responded” value with rats [1] (dose 30 mg/kg) is reported as 5/8. Moreover, in the series with rats [1] (dose 60 mg/kg), the “Fraction of rats which responded” value was 5/8. For the same compound, the “Fraction of rats which responded” value in the series on rats [1] (dose 120 mg/kg) is recorded as 8/8. Also, in the series on rats [1] (rats, MES model), the median effective dose (ED50) worked out at 33 mg/kg and the “ED50 MES in Rats” value was 32.7 mg/kg. In addition, in the series on rats [2], the 50% effect level (ED50) was put at a dose of 16 mg/kg and the “ED50 scMet in Rats” value is listed as 15.7 mg/kg. In the series on rats [2] (dose 6 mg/kg), the “Fraction of rats which responded” value is 1/8. The “Fraction of rats which responded” value in the series with rats [2] (dose 12 mg/kg) is given as 2/8. The “Fraction of rats which responded” value with rats [2] (dose 25 mg/kg) was 6/8. For the same compound, the “Fraction of rats which responded” value in the series on rats [2] (dose 50 mg/kg) is on record as 8/8. The 50% effect level in the series with mice [3] (ED50) was put at a dose of 43.3 mg/kg. Also, the ED50 in the series on mice [4] worked out at 48.6 mg/kg. Moreover, in the series on rats [5] (rats, intraperitoneal), the ED50 was above 200 mg/kg.
`CC(C)(C)CC(=O)NC(N)=O` [Compound 3, 1-(3,3-dimethyl-butyryl)urea] returned a melting point of 174 to 175 °C. In addition, in the series on rats [1] (rats, MES model), the 50% effect level (ED50) was put at a dose of 63.9 mg/kg. In the series on rats [2], this compound came in with an ED50 of 26 mg/kg. Also, the ED50 in the series with mice [3] was determined as 80 mg/kg. Further, in the series with rats [5] (rats, intraperitoneal), the ED50 worked out at 35 mg/kg and the “ED50 Hippocampal kindling in Rats” value came to 35.1 mg/kg. Also, the “After Discharge Duration After administration” value with rats [5] (individual kindled rats, 15 minutes after intraperitoneal administration, before: 93-103 (rat 1), 28-75 (rat 2)) was “significantly decreased and 4 sec and 14 sec”. In addition, in the series on rats [5] (individual kindled rats, 15 minutes after intraperitoneal administration, score before administration 5), the “Seizure Score After administration” value is on record as 0. The 50% effective dose (ED50) with mice [10] amounted to 205 mg/kg. Moreover, the ED50 in the series on mice [11] was 167 mg/kg. In addition, in “in vivo”, the TD50 stood at 143 mg/kg.
`CCCCC(CC)C(=O)NC(N)=O` (centres unmarked) [Compound 5, 1-(2-ethyl-hexanoyl)-urea] had a melting point of 158 to 159 °C. In addition, in the series on mice [9], the anti-convulsant activity result is “lack beneficial activity”.
In the case of `CCCC(CCC)C(=O)NC(N)=O` [Compound 6, 1-(2-propyl-pentanoyl)-urea], the median effective dose (ED50) in the series with rats [1] (rats, MES model) is 53.8 mg/kg; with rats [2], 76.8 mg/kg; in the series with mice [3], 57.8 mg/kg; in the series on mice [4], 105 mg/kg; with rats [5] (rats, intraperitoneal), above 180 mg/kg. In the series on mice [9], the anti-convulsant activity result was “lack beneficial activity”.
In the case of `CC(C)CC(=O)NC(N)=O` [Compound 7, 3-methylbutanoylurea], the ED50 in the series on rats [1] (rats, MES model) was above 250 mg/kg; with rats [2] it was 83 mg/kg. Besides, the anti-convulsant activity result with mice [9] is given as “lack beneficial activity”. In the series “in vivo”, the TD50 is below 500 mg/kg.
On to `CCC(C)C(=O)NC(N)=O` (centres unmarked) [Compound 8, 2-methylbutanoylurea], for which the melting point is 178 to 180 °C. In addition, the anti-convulsant activity result in the series with mice [9] is on record as “lack beneficial activity”.
`CC(C)(C)C(=O)NC(N)=O` [Compound 9, 2,2-dimethylpropanoylurea]: the melting point lay in the range of 148 to 149 °C. This compound yielded a 50% effective dose (ED50) in the series with rats [1] (rats, MES model) of 69.4 mg/kg. Further, the median effective dose (ED50) in the series on rats [2] stood at 29.8 mg/kg. The compound also had a TD50 in the series “in vivo” of 228 mg/kg.
On to `CC1(C)C(C(=O)NC(N)=O)C1(C)C` [Reference Compound 1, N-(2,2,3,3-tetramethylcyclopropanecarbonyl)urea], for which the “ED50 rat-MES model” value in the series with rats [12] is listed as 29 mg/kg. Also, the “ED50 rat-scMet model” value with rats [13] is reported as 92 mg/kg.
For the compound `CC1(C)C(C(=O)NCC(N)=O)C1(C)C` [Reference Compound 2, N-(2,2,3,3-tetramethylcyclopropylcarbonyl)glycinamide], the “ED50 rat-MES model” value in the series with rats [12] is listed as 73 mg/kg. Also, the “ED50 rat-scMet model” value in the series on rats [13] is given as “higher than 250 mg/kg”. Moreover, the TD50 result with rats [14] is recorded as “above 500 mg/kg”.
Turning to `CCCC(CCC)C(=O)O` [Valproic acid, valproic acid], the “ED50 rat-scMet model” value in the series on rats [13] was 646 mg/kg. For the same compound, the “Bicucullin ED50” value in the series with mice [15] is given as 589 mg/kg. In addition, the “Picrotoxin ED50” value in the series on mice [16] was 270 mg/kg.
